Structures can show the parent of a compound that is named as a salt. Where two headings read alike, the source gives them in different places.
Tests used:
[1] = Salt screening (slurry crystallization); format: physicochemical; parameters: key to Salt screening result: (+) shows that a crystalline salt was formed; (−) physical mixtures; settings: for Polymorph obtained in salt screening: XRPD; for Salt screening result: slurry 50° C. then 25° C.
Method: About 45 mg was added to a suitable solvent and different equivalents of acids were added under stirring at 50° C. for about 2 hours and then at 25° C. for at least 32 hours. Ethanol, acetone, and ACN were used as screening solvents. When no precipitation was obtained or only a few solids were obtained, the solutions were placed at 5° C. for crystallization.
(§1) Obtained suspensions were taken out and centrifuged. Solids obtained was analysed by XRPD. Salts with high or medium crystallinity were further characterized (see Table 5).

Crystallinity by XRPD = format: physicochemical; settings: salt screening sample
Method: as §1
(§2) According to the salt screening results (see Table 4), totally 19 potential salt hits were identified. All the potential salt hits were further investigated by Differential Scanning Calorimetry (DSC), Thermogravimetric analysis (TGA), H-NMR, Ion chromatography (IC), Karl Fischer titration (KF), and Polarized Light Microscopy (PLM) to confirm their identity and evaluate their physicochemical properties as shown in Table 5 below.

[2] = Thermogravimetric analysis (TGA) weight loss; format: physicochemical; settings: salt screening sample, at the temperature given (80-200° C.)
Text: as §2

[3] = Hygroscopicity (water uptake) of salt hits; format: physicochemical; settings: salt screening sample; for Hygroscopicity: grade in words
Text: as §2

[4] = format: physicochemical; settings: salt screening sample
Text: as §2

[5] = Solubility of diastereomeric salts in solvents; format: physicochemical; settings: 20 °C, read-out: Solubility @ 20-30° C.
Text: Thus, in another highly preferred embodiment, DCM is used in step c).

[6] = organic solvent or mixture, in Acetone
[7] = organic solvent or mixture, in DCM
[8] = organic solvent or mixture, in EtOAc
[9] = organic solvent or mixture, in EtOH
[10] = organic solvent or mixture, in Heptane
[11] = organic solvent or mixture, in IPA
[12] = organic solvent or mixture, in IPAC
[13] = organic solvent or mixture, in MEK
[14] = organic solvent or mixture, in MTBE
[15] = organic solvent or mixture, in MeOH
[16] = organic solvent or mixture, in THF
[17] = organic solvent or mixture, in Toluene

Row | Compound | Polymorph obtained in salt screening ([1]; ACN) | Salt screening result ([1]; ACN) | Polymorph obtained in salt screening ([1]; Acetone) | Salt screening result ([1]; Acetone) | Polymorph obtained in salt screening ([1]; EtOH) | Salt screening result ([1]; EtOH) | Crystallinity (Crystallinity by XRPD) | Weight loss (%) [2] | Water content (% w/w) [4] | other results
1 | COc1cc(C(F)(F)F)c(OC)cc1[C@@H]1CCCNC1.COc1cc(C(F)(F)F)c(OC)cc1[C@@H]1CCCNC1.O=C(O)CCC(=O)O [Hemi-succinate salt Polymorph B] | Polymorph A | + | Polymorph A | + | Polymorph A | + | Medium | 4.8% |  | Hygroscopicity (water uptake % w/w) [3]: (~1.8%) % w/w; Hygroscopicity [3]: Hygroscopic
2 | COc1cc(C(F)(F)F)c(OC)cc1[C@@H]1CCCNC1.N[C@@H](CC(=O)O)C(=O)O [L-aspartate salt Polymorph A] | Polymorph A | + |  | − | Polymorph A | + | High | 3.9% | 7.0% w/w | Hygroscopicity (water uptake % w/w) [3]: (~4.3%) % w/w; Hygroscopicity [3]: Hygroscopic
3 | COc1cc(C(F)(F)F)c(OC)cc1[C@@H]1CCCNC1.COc1cc(C(F)(F)F)c(OC)cc1[C@@H]1CCCNC1.O=C(O)C(O)C(O)C(=O)O [Hemi L-tartrate salt Polymorph A] | Polymorph A | + | Polymorph A | + | Polymorph A | + | Medium | 4.0% |  | 
4 | COc1cc(C(F)(F)F)c(OC)cc1[C@@H]1CCCNC1.O=C(O)/C=C/C(=O)O [Mono-fumarate salt Polymorph C] | Polymorph C | + | Polymorph C | + | Polymorph C | + | Medium | 0.6% |  | Hygroscopicity (water uptake % w/w) [3]: (~0.2%) % w/w
5 | Gentisic acid |  | Clear solution |  | Clear solution |  | Clear solution |  |  |  | 
6 | CC(=O)O.COc1cc(C(F)(F)F)c(OC)cc1[C@@H]1CCCNC1 [Acetate salt Polymorph A] | Polymorph A | + | Polymorph A | + |  | Clear solution | High | 0.2% |  | Hygroscopicity [3]: None
7 | COc1cc(C(F)(F)F)c(OC)cc1[C@@H]1CCCNC1.N[C@@H](CCC(=O)O)C(=O)O [L-glutamate salt Polymorph C] |  |  |  |  |  |  | High | 6.3% | 8.7% w/w | 
8 | Citric acid |  | Clear solution |  | Clear solution |  | Clear solution |  |  |  | 
9 | COc1cc(C(F)(F)F)c(OC)cc1[C@@H]1CCCNC1.C[C@H](O)C(=O)O [L-lactate salt Polymorph A] | Polymorph A | + |  | Thin suspension |  | Clear solution | High | 4.9% | 5.1% w/w | Hygroscopicity [3]: None
10 | COc1cc(C(F)(F)F)c(OC)cc1[C@@H]1CCCNC1.C[C@@H](O)C(=O)O [D-lactate salt Polymorph A] |  | Clear solution |  | Thin suspension | Polymorph A | + | High |  |  | 
11 | COc1cc(C(F)(F)F)c(OC)cc1[C@@H]1CCCNC1.O=C(O)C[C@H](O)C(=O)O [L-malate salt Polymorph A] | Polymorph A | + | Polymorph A | + | Polymorph A | + | High | 2.3% | 5.9% w/w | Hygroscopicity (water uptake % w/w) [3]: (~0.3%) % w/w
12 | COc1cc(C(F)(F)F)c(OC)cc1[C@@H]1CCCNC1 [drawing 39, (−)-Di-p-anisoyl-L-tartaric acid salt of (S)-3-(2,5-dimethoxy-4-(trifluoromethyl)phenyl)piperidine (1:1)] |  |  |  |  |  |  |  |  |  | solubility ([5]; organic solvent or mixture, in 2-MeTHF): 50000 µg/mL; solubility ([5]; organic solvent or mixture, in ACN): 12000 µg/mL; solubility [5, 6]: < 10000 µg/mL; solubility [5, 7]: < 10000 µg/mL; solubility [5, 8]: < 10000 µg/mL; solubility [5, 9]: 12000 µg/mL; solubility [5, 10]: < 10000 µg/mL; solubility [5, 11]: < 10000 µg/mL; solubility [5, 12]: < 10000 µg/mL; solubility [5, 13]: < 10000 µg/mL; solubility [5, 14]: < 10000 µg/mL; solubility [5, 15]: 30000 µg/mL; solubility [5, 16]: 50000 µg/mL; solubility [5, 17]: < 10000 µg/mL; solubility ([5]; in Water): < 5000 µg/mL
13 | COc1cc(C(F)(F)F)c(OC)cc1[C@@H]1CCCNC1.N[C@@H](CCC(=O)O)C(=O)O [L-glutamate salt Polymorph B] |  |  |  |  |  |  | Medium | 6.6% | 6.9% w/w | 
14 | COc1cc(C(F)(F)F)c(OC)cc1[C@@H]1CCCNC1.COc1cc(C(F)(F)F)c(OC)cc1[C@@H]1CCCNC1.O=C(O)/C=C/C(=O)O [Hemi-fumarate salt Polymorph B] |  |  |  |  |  |  | Medium | 9.4% | 9.3% w/w | 
15 | COc1cc(C(F)(F)F)c(OC)cc1[C@H]1CCCNC1 [(−)-Di-p-anisoyl-L-tartaric acid salt of (R)-3-(2,5-dimethoxy-4-(trifluoromethyl)phenyl)piperidine (1:1)] |  |  |  |  |  |  |  |  |  | solubility [5, 6]: < 10000 µg/mL; solubility [5, 7]: > 400000 µg/mL; solubility [5, 8]: < 10000 µg/mL; solubility [5, 9]: 25000 µg/mL; solubility [5, 10]: < 10000 µg/mL; solubility [5, 11]: < 10000 µg/mL; solubility [5, 12]: < 10000 µg/mL; solubility [5, 13]: < 10000 µg/mL; solubility [5, 14]: < 10000 µg/mL; solubility [5, 15]: 40000 µg/mL; solubility [5, 16]: 45000 µg/mL; solubility [5, 17]: < 10000 µg/mL; solubility ([5]; in Water): < 5000 µg/mL
16 | Glutamic acid | Polymorph C | + |  | + | Polymorph A | + |  |  |  | 
17 | COc1cc(C(F)(F)F)c(OC)cc1[C@@H]1CCCNC1.N[C@@H](CCC(=O)O)C(=O)O [L-glutamate salt Polymorph A] |  |  |  |  |  |  | Low | 4.8% | 8.6% w/w | 
18 | COc1cc(C(F)(F)F)c(OC)cc1[C@@H]1CCCNC1.O=S(=O)(O)O [Sulfate salt Polymorph A] | Polymorph A | + | Polymorph A | + | Polymorph A | + | High | 8.2% |  | 
19 | COc1cc(C(F)(F)F)c(OC)cc1[C@@H]1CCCNC1.COc1cc(C(F)(F)F)c(OC)cc1[C@@H]1CCCNC1.O=C(O)/C=C/C(=O)O [Hemi-fumarate salt Polymorph A] |  |  |  |  |  |  | Medium | 4.8% | 5.5% w/w | 
20 | COc1cc(C(F)(F)F)c(OC)cc1[C@@H]1CCCNC1.O=P(O)(O)O [Phosphate salt Polymorph A] |  | Hazy solution | Polymorph A | + |  | Clear solution | Medium | 0.7% |  | 

— patent US12723024B2 (priority 2021, dated 2026)
